Where two headings read alike, the source gives them in different places. Some results are limits rather than exact numbers.

In series [1] the target is T1, BRAF (Homo sapiens, UniProt P15056).
T1 construct: purchased Eurofins Genomics KK; (BRAF); Thermo Fisher Scientific Inc. (MEK1)
The series can be described thus: BRAF-inhibiting activity, time-resolved fluorescence-fluorescence resonance energy transfer assay. It counts as biochemical. The settings on record: read-out: BRAF IC50. How it is done:
The BRAF-inhibiting activity of the compounds listed in Table 3 below was evaluated by the time-resolved fluorescence-fluorescence resonance energy transfer assay as described below.

Series [2] has as its system HCT-116. The series can be described thus: HCT-116 growth-inhibiting activity. As to conditions: Table 1, human cancer cells with RAS mutation. It counts as cell-based.
For series [3], the system named is Colo-205. Description: Colo-205 growth-inhibiting activity. It counts as cell-based. As to conditions: Table 1, human cancer cells with BRAF mutation.
For series [4], the target named is T2, MEK1 (Homo sapiens, UniProt Q02750).
T2 construct: purchased Thermo Fisher Scientific Inc. (MEK1, CRAF); Carna Biosciences, Inc. (ERK2)
The series can be described thus: MEK1-inhibiting activity, fluorescent polarization method (CRAF/MEK1/ERK2 cascade, IMAP). It counts as biochemical.

Series [5] concerns A549. The series can be described thus: Cell proliferation-inhibiting activity (ATP in viable cells, CellTiter-Glo), A549. The series is classed as cell-based, human. As to conditions: A549, 96 h; human lung cancer cells, 4 days; read-out: A549 IC50.
Series [6] has as its system Calu-6. The series can be described thus: Cell proliferation-inhibiting activity (ATP in viable cells, CellTiter-Glo), Calu-6. It counts as cell-based, human. The settings on record: Calu-6, 96 h; human lung cancer cells, 4 days; read-out: Calu-6 IC50.
Series [7] concerns NCI-H2122. Description: Cell proliferation-inhibiting activity (ATP in viable cells, CellTiter-Glo), NCI-H2122. The series is classed as cell-based, human. The settings on record: NCI-H2122, 96 h; human lung cancer cells, 4 days; read-out: NCI-H2122 IC50.
Series [8] is described as follows: Human liver microsome stability. It counts as in vitro ADME. As to conditions: human liver microsomes, pH 7.4.

T2 sequence (Q02750 whole entry): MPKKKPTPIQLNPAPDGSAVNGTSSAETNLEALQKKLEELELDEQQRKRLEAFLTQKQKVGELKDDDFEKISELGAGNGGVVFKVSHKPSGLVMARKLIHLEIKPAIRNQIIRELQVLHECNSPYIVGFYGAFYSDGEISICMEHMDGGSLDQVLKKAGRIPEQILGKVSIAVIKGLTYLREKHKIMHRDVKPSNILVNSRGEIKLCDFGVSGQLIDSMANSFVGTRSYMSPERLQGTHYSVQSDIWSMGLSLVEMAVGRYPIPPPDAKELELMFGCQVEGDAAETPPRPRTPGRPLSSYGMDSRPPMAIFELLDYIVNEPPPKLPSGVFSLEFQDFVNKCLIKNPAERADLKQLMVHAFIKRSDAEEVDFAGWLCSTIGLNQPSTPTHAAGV
T1 sequence (P15056 417-766 limits assumed): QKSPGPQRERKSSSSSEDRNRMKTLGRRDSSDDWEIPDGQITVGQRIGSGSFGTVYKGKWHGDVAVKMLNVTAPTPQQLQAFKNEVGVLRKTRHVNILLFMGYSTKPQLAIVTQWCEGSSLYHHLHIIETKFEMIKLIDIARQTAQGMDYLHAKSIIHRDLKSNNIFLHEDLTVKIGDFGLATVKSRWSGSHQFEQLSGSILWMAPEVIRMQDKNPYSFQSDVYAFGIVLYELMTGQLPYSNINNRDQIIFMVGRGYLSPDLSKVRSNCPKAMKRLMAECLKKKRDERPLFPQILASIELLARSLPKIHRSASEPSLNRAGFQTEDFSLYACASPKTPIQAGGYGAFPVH

With `CNS(=O)(=O)NCC(=O)N(Cc1cc(C(=O)NOCCO)c(Nc2ccc(I)cc2F)c(F)c1F)OC` [AA-1, 3,4-Difluoro-2-(2-fluoro-4-iodoanilino)-N-(2-hydroxyethoxy)-5-[[methoxy-[2-(methylsulfamoylamino)acetyl]amino]methyl]benzamide], the IC50 in series [1] (Table 1) was 3 nM; in series [2], 2 nM; in series [3] it was 0.4 nM; in series [4] (Table 1) it was 21 nM.

`CNS(=O)(=O)Nc1cccc(Cc2c(CC(=O)NOCCO)c3ccc(Oc4ncccn4)cc3oc2=O)c1F` [AA-2, 2-[3-[[2-Fluoro-3-(methylsulfamoylamino)phenyl]methyl]-2-oxo-7-pyrimidin-2-yloxychromen-4-yl]-N-(2-hydroxyethoxy)acetamide]: the IC50 in series [1] (Table 1) is 2200 nM; in series [2], 45000 nM; in series [4] (Table 1) it was > 8000 nM.

Regarding `CNS(=O)(=O)Nc1nccc(Cc2cc(C(N)=O)c(Nc3ccc(I)cc3F)cn2)c1F` [Compound L-1, 5-(2-Fluoro-4-iodoanilino)-2-[[3-fluoro-2-(methylsulfamoylamino)pyridin-4-yl]methyl]pyridine-4-carboxamide], the IC50 in series [1] (Table 3) came to 2 nM; in series [5], 21 nM; in series [6], 41 nM; in series [7], 17 nM; in series [4] (Table 3), 6 nM. The compound also had a microsomal CLint at 0.99 µM in series [8] of 10 µL/min/mg.

The values are drawn from patent EP4725941A1, “ARYLAMIDE DERIVATIVE HAVING ANTITUMOR ACTIVITY” (priority 2020, dated 2021).
